Like-named read-outs stand apart in the source and are kept apart here.
System: HCV 1b genotype
Test: HCV Replicon assay (HCV 1b genotype)
Assay type: cell-based
Conditions: Hepatitis C virus, HCV 1b genotype replicon
Description: An HCV Replicon assay was utilized in the present disclosure, and was prepared, conducted and validated as described in commonly owned PCT/US2006/022197 and in O'Boyle et al., Antimicrob. Agents Chemother., 49(4):1346-1353 (April 2005). Assay methods incorporating luciferase reporters have also been used as described (Apath.com).
HCV-neo replicon cells and replicon cells containing resistance substitutions in the NS5A region were used to test the currently described family of compounds. The compounds were determined to have differing degrees of reduced inhibitory activity on cells containing mutations vs. the corresponding inhibitory potency against wild-type cells. Thus, the compounds of the present disclosure can be effective in inhibiting the function of the HCV NS5A protein and are understood to be as effective in combinations as previously described in application PCT/US2006/022197 and commonly owned WO 04/014852. It should be understood that the compounds of the present disclosure can inhibit multiple genotypes of HCV. […] In one embodiment, compounds of the present disclosure are inhibitory versus 1a, 1b, 2a, 2b, 3a, 4a, and 5a genotypes.

[1] = read-out: Range (EC50 values against HCV 1b)

| Compound | EC50 [1] | EC50 (read-out: EC50) |
| --- | --- | --- |
| COC(=O)N[C@H](C(=O)N1CCC[C@H]1c1ncc(-c2ccc3cc(-c4cnc([C@@H]5CCCN5C(=O)[C@@H](NC(=O)OC)C(C)C)[nH]4)ccc3c2)[nH]1)C(C)C [Example 32] | 0.0101 to 1 nM |  |
| COC(=O)N[C@H](C(=O)N1[C@@H]2C[C@@H]2C[C@H]1c1nc2ccc(-c3ccc4nc(-c5ccc6nc([C@@H]7C[C@H]8C[C@H]8N7C(=O)[C@@H](NC(=O)OC)C7CCOCC7)[nH]c6c5)cnc4c3)cc2[nH]1)C1CCOCC1 [Example 38, Dimethyl(2,6-quinoxalinediylbis(1H-benzimidazole-5,2-diyl(1R,3S,5R)-2-azabicyclo[3.1.0]hexane-3,2-diyl((1S)-2-oxo-1-(tetrahydro-2H-pyran-4-yl)-2,1-ethanediyl)))biscarbamate] | 0.0101 to 1 nM | 0.0421 nM |
| COC(=O)N[C@H](C(=O)N1[C@@H]2C[C@@H]2C[C@H]1c1nc2ccc(-c3ccc4nc(-c5ccc6nc([C@@H]7C[C@H]8C[C@H]8N7C(=O)[C@@H](NC(=O)OC)C7CCOCC7)[nH]c6c5)ccc4c3)cc2[nH]1)C1CCOCC1 [Example 39, Dimethyl(2,6-quinolinediylbis(1H-benzimidazole-5,2-diyl(1R,3S,5R)-2-azabicyclo[3.1.0]hexane-3,2-diyl((1S)-2-oxo-1-(tetrahydro-2H-pyran-4-yl)-2,1-ethanediyl)))biscarbamate] | 0.0101 to 1 nM |  |
| COC(=O)N[C@H](C(=O)N1CCC[C@H]1c1ncc(-c2ccc3cc(-c4ccc5c(ccc6nc([C@@H]7CCCN7C(=O)[C@@H](NC(=O)OC)C7CCOCC7)[nH]c65)c4)ccc3c2)[nH]1)C1CCOCC1 [Example 42] | 0.0101 to 1 nM |  |
| COC(=O)N[C@H](C(=O)N1[C@@H]2C[C@@H]2C[C@H]1c1ncc(-c2ccc3cc(-c4ccc5nc([C@@H]6C[C@H]7C[C@H]7N6C(=O)[C@@H](NC(=O)OC)C6CCOCC6)[nH]c5c4)ccc3c2)[nH]1)C1CCOCC1 [Example 45, Methyl((1S)-2-((1R,3S,5R)-3-(4-(6-(2-((1R,3S,5R)-2-((2S)-2-((methoxycarbonyl)amino)-2-(tetrahydro-2H-pyran-4-yl)acetyl)-2-azabicyclo[3.1.0]hex-3-yl)-1H-benzimidazol-5-yl)-2-naphthyl)-1H-imidazol-2-yl)-2-azabicyclo[3.1.0]hex-2-yl)-2-oxo-1-(tetrahydro-2H-pyran-4-yl)ethyl)carbamate] | 0.0101 to 1 nM |  |
| COC(=O)N[C@H](C(=O)N1[C@@H]2C[C@@H]2C[C@H]1c1nc2ccc(-c3ccc4cc(-c5ccc6cc(-c7ccc8nc([C@@H]9C[C@H]%10C[C@H]%10N9C(=O)[C@@H](NC(=O)OC)C(C)C)[nH]c8c7)ccc6c5)ccc4c3)cc2[nH]1)C(C)C [Example 46, Methyl((1S)-1-(((1R,3S,5R)-3-(5-(6′-(2-((1R,3S,5R)-2-((2S)-2-((methoxycarbonyl)amino)-3-methylbutanoyl)-2-azabicyclo[3.1.0]hex-3-yl)-1H-benzimidazol-5-yl)-2,2′-binaphthalen-6-yl)-1H-benzimidazol-2-yl)-2-azabicyclo[3.1.0]hex-2-yl)carbonyl)-2-methylpropyl)carbamate] | 1.01 to 1000 nM | 170 nM |
| COC(=O)N[C@H](C(=O)N1[C@@H]2C[C@@H]2C[C@H]1c1nc(Cl)c(-c2ccc3cc(-c4ccc5nc([C@@H]6C[C@H]7C[C@H]7N6C(=O)[C@@H](NC(=O)OC)C6CCOCC6)[nH]c5c4)ccc3c2)[nH]1)C1CCOCC1 [Example 50, Methyl((1S)-2-((1R,3S,5R)-3-(4-chloro-5-(6-(2-((1R,3S,5R)-2-((2S)-2-((methoxycarbonyl)amino)-2-(tetrahydro-2H-pyran-4-yl)acetyl)-2-azabicyclo[3.1.0]hex-3-yl)-1H-benzimidazol-5-yl)-2-naphthyl)-1H-imidazol-2-yl)-2-azabicyclo[3.1.0]hex-2-yl)-2-oxo-1-(tetrahydro-2H-pyran-4-yl)ethyl)carbamate] | 0.0101 to 1 nM |  |
